The target in this experiment is T1, Human CaV2.2 channels (Homo sapiens, UniProt Q00975).
T1 construct: expressed in transfected cells
T1 sequence (Q00975 whole entry): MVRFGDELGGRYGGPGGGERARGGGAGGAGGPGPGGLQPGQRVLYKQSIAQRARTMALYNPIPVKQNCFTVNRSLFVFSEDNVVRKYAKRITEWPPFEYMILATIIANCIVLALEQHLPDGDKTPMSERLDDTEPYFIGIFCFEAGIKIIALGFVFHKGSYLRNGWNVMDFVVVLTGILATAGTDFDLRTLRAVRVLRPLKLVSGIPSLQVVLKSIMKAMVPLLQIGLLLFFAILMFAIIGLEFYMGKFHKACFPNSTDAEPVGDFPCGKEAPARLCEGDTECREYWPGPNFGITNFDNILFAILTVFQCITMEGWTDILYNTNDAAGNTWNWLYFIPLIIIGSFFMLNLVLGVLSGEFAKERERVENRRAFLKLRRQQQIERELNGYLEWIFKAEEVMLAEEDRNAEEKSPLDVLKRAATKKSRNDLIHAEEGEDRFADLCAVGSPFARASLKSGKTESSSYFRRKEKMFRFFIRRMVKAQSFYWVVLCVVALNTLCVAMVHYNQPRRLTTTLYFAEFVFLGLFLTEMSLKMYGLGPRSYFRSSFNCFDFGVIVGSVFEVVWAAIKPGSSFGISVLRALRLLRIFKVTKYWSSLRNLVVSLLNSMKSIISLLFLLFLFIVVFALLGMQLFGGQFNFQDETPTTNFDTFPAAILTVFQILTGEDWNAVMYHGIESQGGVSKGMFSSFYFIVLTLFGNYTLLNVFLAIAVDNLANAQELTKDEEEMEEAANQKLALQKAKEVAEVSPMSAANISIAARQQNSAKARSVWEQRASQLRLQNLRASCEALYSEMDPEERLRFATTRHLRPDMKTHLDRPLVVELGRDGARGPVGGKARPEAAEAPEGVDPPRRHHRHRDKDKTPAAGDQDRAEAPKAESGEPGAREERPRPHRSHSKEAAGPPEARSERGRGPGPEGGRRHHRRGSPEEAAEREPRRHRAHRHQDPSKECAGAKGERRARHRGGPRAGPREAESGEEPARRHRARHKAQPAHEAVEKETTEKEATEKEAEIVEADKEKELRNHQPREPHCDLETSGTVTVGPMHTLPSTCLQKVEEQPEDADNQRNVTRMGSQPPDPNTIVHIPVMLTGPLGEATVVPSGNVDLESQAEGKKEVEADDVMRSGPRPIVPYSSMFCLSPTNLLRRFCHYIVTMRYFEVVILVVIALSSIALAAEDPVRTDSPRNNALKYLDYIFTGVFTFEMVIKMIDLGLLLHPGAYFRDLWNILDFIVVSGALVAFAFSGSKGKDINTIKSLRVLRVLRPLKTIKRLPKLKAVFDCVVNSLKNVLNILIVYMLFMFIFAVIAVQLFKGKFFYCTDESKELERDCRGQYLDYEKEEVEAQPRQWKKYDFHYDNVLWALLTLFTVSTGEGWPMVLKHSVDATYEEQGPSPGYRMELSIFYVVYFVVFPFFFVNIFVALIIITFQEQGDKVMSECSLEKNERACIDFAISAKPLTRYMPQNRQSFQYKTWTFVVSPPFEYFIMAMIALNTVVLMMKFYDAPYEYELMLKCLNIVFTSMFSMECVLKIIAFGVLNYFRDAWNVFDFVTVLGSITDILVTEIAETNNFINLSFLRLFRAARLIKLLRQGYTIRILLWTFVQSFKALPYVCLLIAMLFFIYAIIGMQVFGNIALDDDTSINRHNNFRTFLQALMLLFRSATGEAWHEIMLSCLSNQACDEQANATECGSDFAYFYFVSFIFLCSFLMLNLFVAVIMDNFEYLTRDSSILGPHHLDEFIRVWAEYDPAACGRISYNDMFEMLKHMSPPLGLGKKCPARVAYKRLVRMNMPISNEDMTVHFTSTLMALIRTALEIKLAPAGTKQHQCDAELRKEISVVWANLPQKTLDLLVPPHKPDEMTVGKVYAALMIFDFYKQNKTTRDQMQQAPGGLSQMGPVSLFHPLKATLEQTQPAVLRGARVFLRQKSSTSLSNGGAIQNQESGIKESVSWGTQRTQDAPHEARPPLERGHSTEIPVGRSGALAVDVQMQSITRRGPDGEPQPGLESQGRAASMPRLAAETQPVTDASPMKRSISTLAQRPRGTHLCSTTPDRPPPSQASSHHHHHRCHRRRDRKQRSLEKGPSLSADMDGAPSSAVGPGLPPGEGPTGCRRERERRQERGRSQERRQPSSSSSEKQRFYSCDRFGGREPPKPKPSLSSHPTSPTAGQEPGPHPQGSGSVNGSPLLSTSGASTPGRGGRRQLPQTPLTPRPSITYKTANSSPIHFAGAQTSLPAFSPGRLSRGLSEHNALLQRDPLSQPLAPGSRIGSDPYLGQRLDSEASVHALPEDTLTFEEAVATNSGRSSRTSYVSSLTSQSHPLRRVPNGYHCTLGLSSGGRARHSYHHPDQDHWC
T1 sequence (P54289 25-1103, further chain): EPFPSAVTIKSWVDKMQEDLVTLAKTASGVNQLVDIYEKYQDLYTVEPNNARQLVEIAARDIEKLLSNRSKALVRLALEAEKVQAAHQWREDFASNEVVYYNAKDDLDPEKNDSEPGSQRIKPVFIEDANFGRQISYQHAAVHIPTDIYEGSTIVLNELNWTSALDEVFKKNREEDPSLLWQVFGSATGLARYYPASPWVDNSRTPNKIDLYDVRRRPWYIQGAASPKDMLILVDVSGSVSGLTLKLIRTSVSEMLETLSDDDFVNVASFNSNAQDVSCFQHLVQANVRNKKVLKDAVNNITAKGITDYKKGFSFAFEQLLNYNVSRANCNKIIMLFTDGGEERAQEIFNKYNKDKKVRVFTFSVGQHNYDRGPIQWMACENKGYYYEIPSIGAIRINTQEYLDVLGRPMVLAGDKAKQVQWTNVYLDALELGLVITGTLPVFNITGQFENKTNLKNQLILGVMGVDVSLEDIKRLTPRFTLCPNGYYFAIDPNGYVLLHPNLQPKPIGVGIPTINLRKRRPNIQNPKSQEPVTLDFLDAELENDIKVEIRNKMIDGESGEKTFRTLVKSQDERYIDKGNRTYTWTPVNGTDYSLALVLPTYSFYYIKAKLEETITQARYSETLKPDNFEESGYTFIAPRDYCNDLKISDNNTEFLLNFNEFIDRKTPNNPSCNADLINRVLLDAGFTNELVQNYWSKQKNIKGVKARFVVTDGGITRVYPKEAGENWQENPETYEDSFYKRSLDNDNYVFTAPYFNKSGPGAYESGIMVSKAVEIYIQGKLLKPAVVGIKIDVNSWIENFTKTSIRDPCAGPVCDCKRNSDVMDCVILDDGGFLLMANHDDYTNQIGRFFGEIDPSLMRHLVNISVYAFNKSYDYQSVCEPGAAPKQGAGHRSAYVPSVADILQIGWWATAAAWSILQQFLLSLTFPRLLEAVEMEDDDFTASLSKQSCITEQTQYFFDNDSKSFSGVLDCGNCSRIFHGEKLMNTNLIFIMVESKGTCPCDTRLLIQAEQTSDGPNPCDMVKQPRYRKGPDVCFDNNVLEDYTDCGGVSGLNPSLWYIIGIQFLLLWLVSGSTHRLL
T1 sequence (P54284 whole entry, further chain): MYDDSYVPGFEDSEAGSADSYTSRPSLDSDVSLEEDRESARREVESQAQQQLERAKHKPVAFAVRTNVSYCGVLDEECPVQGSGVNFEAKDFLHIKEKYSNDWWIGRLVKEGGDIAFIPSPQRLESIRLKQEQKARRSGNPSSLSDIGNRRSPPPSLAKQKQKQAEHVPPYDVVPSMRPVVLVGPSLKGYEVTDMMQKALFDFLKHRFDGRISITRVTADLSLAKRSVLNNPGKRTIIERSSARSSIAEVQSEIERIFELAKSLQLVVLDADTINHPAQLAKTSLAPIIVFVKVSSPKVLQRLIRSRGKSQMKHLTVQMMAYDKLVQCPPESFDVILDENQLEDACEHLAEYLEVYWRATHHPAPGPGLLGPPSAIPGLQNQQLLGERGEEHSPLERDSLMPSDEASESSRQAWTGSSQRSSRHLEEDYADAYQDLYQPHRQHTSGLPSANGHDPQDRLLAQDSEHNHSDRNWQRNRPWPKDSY
The experiment in a line: Fluorescent assay for CaV2.2 channels using potassium depolarization to induce channel opening (FLIPR, Fluo 4). The settings on record: read-out: Activity Category: %-Inhib (CaV2.2) @3 μM @30 mM KCl; 3 μM test compound; 30 mM KCl as printed; HEK293 cells stably expressing human CaV2.2. The format is cell-based. The source says: In the process, the Ca^2+ influx is quantified in the FLIPR assay with the aid of a Ca^2+-sensitive dye (type Fluo-4, Molecular Probes Europe BV, Leiden, the Netherlands) in a fluorescent imaging plate reader (FLIPR 3, Molecular Devices, Sunnyvale, USA), as described hereinafter.
Human CaV2.2 channels were stably expressed in HEK293 cells together with alpha2-delta and beta subunits of voltage gated calcium channels. In addition, an inwardly rectifying potassium channel (Kir2.3) was stably expressed in these cells to augment control of the cell membrane potential by the concentration of extracellular potassium ions. Raise of the extracellular potassium concentration leads to depolarization of the membrane potential and thus regulates the voltage dependent state of CaV2.2 channels. For preparation, cells were seeded in black poly-D-lysine coated 96-well plates (Becton Dickinson, Biocoat 4640) in 100 μL medium [500 mL DMEM/F-12 plus Glutamax (Invitrogen 31331-093) plus 5.5 mL MEM NEAA 100× (Invitrogen 11140-035) plus 50 mL FBS decomplemented (Invitrogen 10270-106) plus 200 μg/mL Geneticin (Invitrogen 10131-027) plus 50 μg/mL Hygromycin B (Invitrogen 10687-010) plus 2 μg/mL Blasticidin (anti-bl5b Invivo-Gen) plus 0.2 μg/mL Puromycin (A 11138-03)] at a cell density of 30.000 cells per well. Plates were incubated at 37° C. (5% CO2) for 20 to 23 h. On the day of experiment medium was discarded and cells were loaded with Fluo 4 by addition of 100 μL of basic assay buffer (10 mM HEPES, 1 mM KCl, 149 mM NaCl, 0.8 mM CaCl2, 1.7 mM MgCl2, 10 mM Glucose, 0.1% BSA. pH 7.4) containing 2 μM Fluo 4 (Molecular Probes; F-14201), 0.01% pluronic acid (Molecular Probes; P-6866) and 2.5 mM probenecid (Molecular Probes; P36400). Cells were incubated in the dark at 25° C. for 60 min. Then dye containing buffer was discarded and 100 μL basic (1 mM KCl) or alternative (30 mM KCl) assay buffer was added. The alternative assay buffer contained altered concentrations of KCl (30 mM) and NaCl (120 mM) and was used in order to promote the inactivated channel state. After that 25 μL of basic or alternative assay buffer with or without test compound were added and cells were incubated again in the dark at 25° C. for 15 min. Fluorescence intensity was measured on a FLIPR 3 instrument (Molecular Devices Corp., Sunnyvale, Calif.) with excitation at 480 nm and emission at 535 nm. After continuously reading fluorescence for 30 sec, 50 μL of basic assay buffer containing 210 mM KCl (NaCl omitted) were added for depolarization. Peak fluorescent signal intensity was determined and the amplitude of the peak signal, normalized to base line, was used to measure channel inhibition by test compounds.
Regarding `Cc1c(-c2ccc(Cl)cc2)c(C(=O)N2CCOCC2)n(Cc2ncn(C)n2)c1C(F)(F)F` [Example 019, [3-(4-Chlorophenyl)-4-methyl-1-[(1-methyl-1H-[1,2,4]triazol-3-yl)-methyl]-5-(trifluoromethyl)-1H-pyrrol-2-yl]-morpholin-4-yl-methanone], the inhibition at 3 µM was 75 to 95%. The figure for `Cc1cc(Cn2c(C(=O)N(C)C(C)C)c(-c3ccc(Cl)cc3)c(C)c2C(F)(F)F)on1` [Example 067, 3-(4-Chlorophenyl)-N-isopropyl-N,4-dimethyl-1-[(3-methyl-isoxazol-5-yl)-methyl]-5-(trifluoromethyl)-1H-pyrrole-2-carboxylic acid amide] is over 95%; for `Cc1c(-c2ccc(Cl)cc2)c(C(=O)N2CCOCC2)n(Cc2ncn[nH]2)c1C(F)(F)F` [Example 060, [3-(4-Chlorophenyl)-4-methyl-1-(1H-[1,2,4]triazol-3-yl-methyl)-5-(trifluoromethyl)-1H-pyrrol-2-yl]-morpholin-4-yl-methanone] it is 40 to 75%; for `CN(CC(C)(C)C)C(=O)c1c(-c2ccc(Cl)cc2)cc(C(F)(F)F)n1Cc1nccn1C` [Example 025, 3-(4-Chlorophenyl)-N-(2,2-dimethyl-propyl)-N-methyl-1-[(1-methyl-1H-imidazole-2-yl)-methyl]-5-(trifluoromethyl)-1H-pyrrole-2-carboxylic acid amide] it is 75 to 95%. As for `Cc1noc(Cn2c(C(F)(F)F)cc(-c3ccc(Cl)cc3)c2C(=O)N(C)CC(C)(C)C)n1` [Example 011, 3-(4-Chlorophenyl)-N-(2,2-dimethyl-propyl)-N-methyl-1-[(3-methyl-[1,2,4]oxadiazol-5-yl)-methyl]-5-(trifluoromethyl)-1H-pyrrole-2-carboxylic acid amide], the inhibition at 3 µM was over 95%. As for `COc1cccc(Cn2c(C(=O)N3CCOCC3)c(-c3ccc(Cl)cc3)c(C)c2C(F)(F)F)n1` [Example 041, [3-(4-Chlorophenyl)-1-[(6-methoxy-pyridin-2-yl)-methyl]-4-methyl-5-(trifluoromethyl)-1H-pyrrol-2-yl]-morpholin-4-yl-methanone], the figure is over 95%.

As to `Cc1noc(Cn2c(C(=O)N3CCOCC3)c(-c3ccc(Cl)cc3)c(C)c2C(F)(F)F)n1` [Example 018, [3-(4-Chlorophenyl)-4-methyl-1-[(3-methyl-[1,2,4]oxadiazol-5-yl)-methyl]-5-(trifluoromethyl)-1H-pyrrol-2-yl]-morpholin-4-yl-methanone], the inhibition at 3 µM was over 95%.

With `CN(CC(C)(C)C)C(=O)c1c(-c2ccc(Cl)cc2)cc(C(F)(F)F)n1Cc1nc(C(F)(F)F)no1` [Example 010, 3-(4-Chlorophenyl)-N-(2,2-dimethyl-propyl)-N-methyl-5-(trifluoromethyl)-1-[[3-(trifluoromethyl)-[1,2,4]oxadiazol-5-yl]-methyl]-1H-pyrrole-2-carboxylic acid amide], the inhibition at 3 µM is 75 to 95%.

On to `Cc1c(-c2ccc(Cl)cc2)c(C(=O)NC2CC2)n(Cc2ncccn2)c1C(F)(F)F` [Example 048, 3-(4-Chlorophenyl)-N-cyclopropyl-4-methyl-1-(pyrimidin-2-yl-methyl)-5-(trifluoromethyl)-1H-pyrrole-2-carboxylic acid amide], for which the inhibition at 3 µM fell in the range of 40 to 75%. The figure for `Cc1c(-c2ccc(Cl)cc2)c(C(=O)N2CCOC(C)(C)C2)n(Cc2ncccn2)c1C(F)(F)F` [Example 040, [3-(4-Chlorophenyl)-4-methyl-1-(pyrimidin-2-yl-methyl)-5-(trifluoromethyl)-1H-pyrrol-2-yl]-(2,2-dimethyl-morpholin-4-yl)-methanone] is 75 to 95%; for `CN(CC(C)(C)C)C(=O)c1c(-c2ccc(Cl)cc2)cc(C(F)(F)F)n1Cc1ncn(C)n1` [Example 013, 3-(4-Chlorophenyl)-N-(2,2-dimethyl-propyl)-N-methyl-1-[(1-methyl-1H-[1,2,4]triazol-3-yl)-methyl]-5-(trifluoromethyl)-1H-pyrrole-2-carboxylic acid amide] it is 75 to 95%. The figure for `Cc1c(-c2ccc(Cl)cc2)c(C(=O)N2CCOCC2)n(CCn2ccccc2=O)c1C(F)(F)F` [Example 055, 1-[2-[3-(4-Chlorophenyl)-4-methyl-2-(morpholine-4-carbonyl)-5-(trifluoromethyl)-1H-pyrrol-1-yl]-ethyl]-1H-pyridin-2-one] is 40 to 75%; for `Cc1c(-c2ccc(Cl)cc2)c(C(=O)N2CCOCC2)n(Cc2ccc(F)cn2)c1C(F)(F)F` [Example 044, [3-(4-Chlorophenyl)-1-[(5-fluoro-pyridin-2-yl)-methyl]-4-methyl-5-(trifluoromethyl)-1H-pyrrol-2-yl]-morpholin-4-yl-methanone] it is over 95%. Take `Cc1cnc(Cn2c(C(=O)N3CCOCC3)c(-c3ccc(Cl)cc3)c(C)c2C(F)(F)F)nc1` [Example 045, [3-(4-Chlorophenyl)-4-methyl-1-[(5-methyl-pyrimidin-2-yl)-methyl]-5-(trifluoromethyl)-1H-pyrrol-2-yl]-morpholin-4-yl-methanone]: the inhibition at 3 µM was over 95%. Consider `Cc1c(-c2ccc(Cl)cc2)c(C(=O)N2CCOCC2)n(Cc2ccnn2C)c1C(F)(F)F` [Example 016, [3-(4-Chlorophenyl)-4-methyl-1-[(2-methyl-2H-pyrazol-3-yl)-methyl]-5-(trifluoromethyl)-1H-pyrrol-2-yl]-morpholin-4-yl-methanone], for which the inhibition at 3 µM was 75 to 95%. For the compound `Cc1c(-c2ccc(Cl)cc2)c(C(=O)N(C)C(C)C)n(Cc2nncs2)c1C(F)(F)F` [Example 069, 3-(4-Chlorophenyl)-N-isopropyl-N,4-dimethyl-1-([1,3,4]thiadiazol-2-yl-methyl)-5-(trifluoromethyl)-1H-pyrrole-2-carboxylic acid amide], the inhibition at 3 µM was over 95%. The figure for `Cc1cnc(Cn2c(C(F)(F)F)cc(-c3ccc(Cl)cc3)c2C(=O)N(C)CC(C)(C)C)cn1` [Example 030, 3-(4-Chlorophenyl)-N-(2,2-dimethyl-propyl)-N-methyl-1-[(5-methyl-pyrazin-2-yl)-methyl]-5-(trifluoromethyl)-1H-pyrrole-2-carboxylic acid amide] is over 95%.

Consider `Cc1c(-c2ccc(Cl)cc2)c(C(=O)N2CCOCC2)n(Cc2cnn(C)c2)c1C(F)(F)F` [Example 023, [3-(4-Chlorophenyl)-4-methyl-1-[(1-methyl-1H-pyrazol-4-yl)-methyl]-5-(trifluoromethyl)-1H-pyrrol-2-yl]-morpholin-4-yl-methanone], for which the inhibition at 3 µM was over 95%.

Take `Cc1noc(Cn2c(C(F)(F)F)cc(-c3ccc(F)cc3)c2C(=O)N(C)C(C)C)n1` [Example 065, 3-(4-Fluorophenyl)-N-isopropyl-N-methyl-1-[(3-methyl-[1,2,4]oxadiazol-5-yl)-methyl]-5-(trifluoromethyl)-1H-pyrrole-2-carboxylic acid amide]: the inhibition at 3 µM is 75 to 95%. Regarding `CC1(C)CN(C(=O)c2c(-c3ccc(F)cc3)cc(C(F)(F)F)n2Cc2ncccn2)CCO1` [Example 031, (2,2-Dimethyl-morpholin-4-yl)-[3-(4-fluorophenyl)-1-(pyrimidin-2-yl-methyl)-5-(trifluoromethyl)-1H-pyrrol-2-yl]-methanone], the inhibition at 3 µM fell in the range of 40 to 75%. For the compound `Cc1c(-c2ccc(Cl)cc2)c(C(=O)N(C)CCS(C)(=O)=O)n(Cc2ccc(F)cn2)c1C(F)(F)F` [Example 038, 3-(4-Chlorophenyl)-1-[(5-fluoro-pyridin-2-yl)-methyl]-N,4-dimethyl-N-(2-methylsulfonyl-ethyl)-5-(trifluoromethyl)-1H-pyrrole-2-carboxylic acid amide], the inhibition at 3 µM was over 95%. The figure for `Cc1c(-c2ccc(Cl)cc2)c(C(=O)N2CC(C)(O)C2)n(-c2cnccn2)c1C(F)(F)F` [Example 051, [3-(4-Chlorophenyl)-4-methyl-1-pyrazin-2-yl-5-(trifluoromethyl)-1H-pyrrol-2-yl]-(3-hydroxy-3-methyl-azetidin-1-yl)-methanone] is 40 to 75%.
